US8163768B2, “1,4-dihydropyridine-fused heterocycles, process for preparing the same, use and compositions containing them” (Aventis Pharma S.A.., priority 2005, dated 2012)
Counter-ions that a name gives are not always drawn.

Legend:
Aurora2 (Aurora-A) = target: T1, Aurora2 (Aurora-A) (Homo sapiens, UniProt O14965); assay: Aurora 2 (Aurora A) kinase radioactivity scintillation assay using nickel chelate Flash plates; assay type: biochemical; conditions: 10 nM Aurora-A, 500 nM NuMA substrate, 1 μM ATP with [33P] ATP, 10 mM MgCl2, 30 minutes, 37° C.
T1 construct: Aurora-A: the full length recombinant protein including an N-terminal poly-histidine tail has been expressed in E. coli; poly-histidine (N); made in house; host or cells: E. coli
T1 sequence (O14965 1-403): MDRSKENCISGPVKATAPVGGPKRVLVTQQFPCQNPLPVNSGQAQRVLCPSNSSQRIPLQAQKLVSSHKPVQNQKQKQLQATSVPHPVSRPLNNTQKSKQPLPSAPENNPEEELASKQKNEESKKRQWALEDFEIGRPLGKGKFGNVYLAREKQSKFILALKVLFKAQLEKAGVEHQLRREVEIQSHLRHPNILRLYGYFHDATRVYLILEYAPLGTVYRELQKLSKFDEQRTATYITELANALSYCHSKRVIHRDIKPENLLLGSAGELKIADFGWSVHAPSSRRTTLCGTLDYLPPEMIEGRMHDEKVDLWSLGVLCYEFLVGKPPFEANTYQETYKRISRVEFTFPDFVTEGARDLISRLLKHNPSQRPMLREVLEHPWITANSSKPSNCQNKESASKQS
Outline: (§1)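 10 nM Aurora-B or Aurora-A with 500 nM NuMA-His substrate, 1 μM ATP plus [³³P]ATP, in 50 mM NaCl, 1 mM DTT and 5 mM (B) or 10 mM (A) MgCl2, 30 min at 37° C on nickel-chelate plates. Incorporated ³³P counted after washing, background-subtracted; IC50 fitted from % inhibition versus concentration.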

Aurora1 (Aurora-B) = target: T2, Aurora1 (Aurora-B) (Homo sapiens, UniProt Q96GD4); assay: Aurora 1 (Aurora B) kinase radioactivity scintillation assay using nickel chelate Flash plates; assay type: biochemical; conditions: 10 nM Aurora-B (co expressed with C3 fragment of INCEP), 500 nM NuMA substrate, 1 μM ATP with [33P] ATP, 5 mM MgCl2, 30 minutes, 37° C.
T2 construct: Aurora-B: the full length protein (His tagged in N-terminal) has been co expressed in SF9 cells; poly-histidine (N); made in house; host or cells: SF9 cells
T2 sequence (Q96GD4 whole entry, species assumed, the tested form may be a part): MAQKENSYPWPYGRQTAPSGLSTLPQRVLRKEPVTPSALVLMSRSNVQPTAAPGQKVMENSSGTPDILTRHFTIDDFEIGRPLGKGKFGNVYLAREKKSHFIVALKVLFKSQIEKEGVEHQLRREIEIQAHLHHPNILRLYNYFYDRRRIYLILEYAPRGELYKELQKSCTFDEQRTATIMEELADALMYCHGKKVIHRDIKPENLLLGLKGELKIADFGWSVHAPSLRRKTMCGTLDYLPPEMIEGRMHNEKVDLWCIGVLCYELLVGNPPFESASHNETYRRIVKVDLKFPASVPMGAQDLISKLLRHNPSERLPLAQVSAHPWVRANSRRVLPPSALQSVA
T2 sequence (Q9NQS7 821-918 partner limits assumed, species assumed): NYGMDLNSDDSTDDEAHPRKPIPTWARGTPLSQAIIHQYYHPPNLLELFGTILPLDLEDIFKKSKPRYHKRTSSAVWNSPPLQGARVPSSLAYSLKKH
Outline: as §1

| IC50 (Aurora2 (Aurora-A)) | IC50 (Aurora1 (Aurora-B)) | melting point | SMILES |
| --- | --- | --- | --- |
| 21 nM | 8 nM | 140 °C | CCOC(=O)c1[nH]cc2c1NC1=C(C(=O)CCC1)C2c1ccc(Sc2nc3cc(OC)ccc3[nH]2)o1 (stereo not shown) [Example 110, 9-[5-(5-Methoxy-1H-benzimidazol-2-ylsulfanyl)-furan-2-yl]-8-oxo-4,5,6,7,8,9-hexahydro-2H-pyrrolo[3,4-b]quinoline-3-carboxylic acid ethyl ester] |
| 1250 nM | 501 nM | 248 °C | CCOC(=O)c1[nH]cc2c1NC1=C(C(=O)CNC1)C2c1ccc(Sc2nc3cc(OC)ccc3[nH]2)o1 (stereo not shown) [Example 111, 9-[5-(6-Methoxy-1H-benzimidazol-2-ylsulfanyl)-furan-2-yl]-8-oxo-4,5,6,7,8,9-hexahydro-2H-pyrrolo[3,4-b][1,7]naphthyridine-3-carboxylic acid ethyl ester] |
|  | 12 nM | 190 to 202 °C | CCOC(=O)c1[nH]cc2c1NC1=C(C(=O)CCC1)C2c1ccc(Sc2nc3cccnc3[nH]2)o1 (stereo not shown) [Example 112, 9-[5-(3H-Imidazo[4,5-b]pyridin-2-ylsulfanyl)-furan-2-yl]-8-oxo-4,5,6,7,8,9-hexahydro-2H-pyrrolo[3,4-b]quinoline-3-carboxylic acid ethyl ester] |
| 48 nM | 8 nM | 190 to 196 °C | CCOC(=O)c1[nH]cc2c1NC1=C(C(=O)CNC1)C2c1ccc(Sc2nc3cc(F)c(F)cc3[nH]2)o1 (stereo not shown) [Example 115, 9-[5-(5,6-Difluoro-1H-benzimidazol-2-ylsulfanyl)-furan-2-yl]-8-oxo-4,5,6,7,8,9-hexahydro-2H-pyrrolo[3,4-b][1,7]naphthyridine-3-carboxylic acid ethyl ester] |
| 54 nM | 6 nM | 180 °C | CCOC(=O)c1[nH]cc2c1NC1=C(C(=O)CCC1)C2c1ccc(Sc2nc3cc(Cl)c(Cl)cc3[nH]2)o1 (stereo not shown) [Example 116, 9-[5-(5,6-Dichloro-1H-benzimidazol-2-ylsulfanyl)-furan-2-yl]-8-oxo-4,5,6,7,8,9-hexahydro-2H-pyrrolo[3,4-b]quinoline-3-carboxylic acid ethyl ester] |
|  |  | 194 °C | CCOC(=O)c1[nH]cc2c1NC1=C(C(=O)CCC1)C2c1cnc(Sc2nc3ccccc3[nH]2)s1 (stereo not shown) [Example 118, 9-[2-(1H-Benzimidazol-2-ylsulfanyl)-thiazol-5-yl]-8-oxo-4,5,6,7,8,9-hexahydro-2H-pyrrolo[3,4-b]quinoline-3-carboxylic acid ethyl ester] |
| 124 nM | 19 nM |  | CCOC(=O)c1[nH]cc2c1NC1=C(C(=O)CCC1)C2c1ccc(Sc2nc3cc4c(cc3[nH]2)OC(F)(F)O4)o1 (stereo not shown) [Example 139, 9-[5-(2,2-Difluoro-5H-[1,3]dioxolo[4′,5′:4,5]benzo[1,2-d]imidazol-6-ylsulfanyl)-furan-2-yl]-8-oxo-4,5,6,7,8,9-hexahydro-2H-pyrrolo[3,4-b]quinoline-3-carboxylic acid ethyl ester] |
| 3900 nM | 1660 nM |  | CCOC(=O)c1[nH]cc2c1NC1=C(C(=O)CN(C(=O)OC(C)(C)C)C1)C2c1ccc(Sc2nc3cc4c(cc3[nH]2)OC(F)(F)O4)o1 (stereo not shown) [Example 140] |
| 87 nM | 20 nM |  | CCOC(=O)c1[nH]cc2c1NC1=C(C(=O)CNC1)C2c1ccc(Sc2nc3cc4c(cc3[nH]2)OC(F)(F)O4)o1 (stereo not shown) [Example 141, 9-[5-(2,2-Difluoro-5H-[1,3]dioxolo[4′,5′:4,5]benzo[1,2-d]imidazol-6-ylsulfanyl)-furan-2-yl]-8-oxo-4,5,6,7,8,9-hexahydro-2H-pyrrolo[3,4-b]-1,7-naphthyridine-3-carboxylic acid ethyl ester hydrochloride] |
| 26 nM | 7 nM |  | CCOC(=O)c1[nH]cc2c1NC1=C(C(=O)CNC1)C2c1ccc(Sc2nc3cc(F)cc(F)c3[nH]2)o1 (stereo not shown) [Example 143, 9-[5-(5,7-Difluoro-1H-benzimidazol-2-ylsulfanyl)-furan-2-yl]-8-oxo-4,5,6,7,8,9-hexahydro-2H-pyrrolo[3,4-b]-1,7-naphthyridine-3-carboxylic acid ethyl ester hydrochloride] |
| 28 nM | 6 nM |  | O=C1CCCC2=C1C(c1ccc(Sc3nc4cc(F)cc(F)c4[nH]3)o1)c1c[nH]nc1N2 (stereo not shown) [Example 144, 4-[5-(5,7-Difluoro-1H-benzimidazol-2-ylsulfanyl)-furan-2-yl]-2,4,6,7,8,9-hexahydro-pyrazolo[3,4-b]quinolin-5-one] |
| 131 nM | 16 nM |  | O=C1CNCC2=C1C(c1ccc(Sc3nc4cc(F)cc(F)c4[nH]3)o1)c1c[nH]nc1N2 (stereo not shown) [Example 145, 4-[5-(5,7-Difluoro-1H-benzimidazol-2-ylsulfanyl)-furan-2-yl]-2,4,6,7,8,9-hexahydro-pyrazolo[3,4b]-1,7-naphthyridin-5-one hydrochloride] |
| 41 nM | 6 nM |  | CCOC(=O)c1[nH]cc2c1NC1=C(C(=O)CCC1)C2c1ccc(Sc2nc3cc(F)c(Cl)cc3[nH]2)o1 (stereo not shown) [Example 146, 9-[5-(6-Chloro-5-fluoro-1H-benzimidazol-2-ylsulfanyl)-furan-2-yl]-8-oxo-4,5,6,7,8,9-hexahydro-2H-pyrrolo[3,4-b]quinoline-3-carboxylic acid ethyl ester] |
| 67 nM | 9 nM |  | CCOC(=O)c1[nH]cc2c1NC1=C(C(=O)CNC1)C2c1ccc(Sc2nc3cc(F)c(Cl)cc3[nH]2)o1 (stereo not shown) [Example 147, 9-[5-(6-Chloro-5-fluoro-1H-benzimidazol-2-ylsulfanyl)-furan-2-yl]-8-oxo-4,5,6,7,8,9-hexahydro-2H-pyrrolo[3,4-b]-1,7-naphthyridine-3-carboxylic acid ethyl ester hydrochloride] |
| 55 nM | 11 nM |  | CCOC(=O)c1[nH]cc2c1NC1=C(C(=O)CNC1)C2c1ccc(Sc2nc3cc(F)ccc3[nH]2)o1 (stereo not shown) [Example 149, 9-[5-(5-Fluoro-1H-benzimidazol-2-ylsulfanyl)-furan-2-yl]-8-oxo-4,5,6,7,8,9-hexahydro-2H-pyrrolo[3,4-b]-1,7-naphthyridine-3-carboxylic acid ethyl ester hydrochloride] |
| 29 nM | 19 nM |  | CCOC(=O)c1[nH]cc2c1NC1=C(C(=O)CCC1)C2c1ccc(Sc2nc3cc(OC(F)(F)F)ccc3[nH]2)o1 (stereo not shown) [Example 150, 8-Oxo-9-[5-(5-trifluoromethoxy-1H-benzimidazol-2-ylsulfanyl)-furan-2-yl]-4,5,6,7,8,9-hexahydro-2H-pyrrolo[3,4-b]quinoline-3-carboxylic acid ethyl ester] |
| 60 nM | 14 nM |  | CCOC(=O)c1[nH]cc2c1NC1=C(C(=O)CNC1)C2c1ccc(Sc2nc3cc(OC(F)(F)F)ccc3[nH]2)o1 (stereo not shown) [Example 151, 8-Oxo-9-[5-(5-trifluoromethoxy-1H-benzimidazol-2-ylsulfanyl)-furan-2-yl]-4,5,6,7,8,9-hexahydro-2H-pyrrolo[3,4-b][1,7]naphthyridine-3-carboxylic acid ethyl ester hydrochloride] |
